Source: EP4778531A1, “MUSCLE RELAXANT ANTAGONIST FOR REVERSAL FOR BENZYLISOQUINOLINE MUSCLE RELAXANT” (priority 2023, dated 2025)

How the values were obtained:
[1] = such as mivacurium, atracurium, and cisatracurium; background; cited from earlier work
[2] = system: Inflammation-Related Factors; format: in vivo, ICR mice; conditions: Adamgammadex sodium 1 g/kg, Sugammadex sodium 1 mg/kg, Neostigmine 0.3 mg/kg
Protocol: An antibody array is a type of protein chip characterized by miniaturization, integration, and high throughput. It can be used to detect the expression abundance of proteins related to a specific physiological or pathological process. The principle involves arranging capture antibodies on a membrane or glass slide, incubating with the sample, adding biotin-labeled antibodies against the target proteins, and finally using HRP-streptavidin or fluorescein-streptavidin to detect the chip signal. Signals are detected using chemiluminescence or HiLyte™ Fluor 555-streptavidin.
In this experiment, ICR mice were randomly divided into a blank group, Adamgammadex sodium (1 g/kg) group, Sugammadex sodium (1 mg/kg) group, and Neostigmine (0.3 mg/kg) group, with 2 mice per group. Mice in each group given the corresponding dosage of compound via the tail vein once daily for 5 consecutive days. On the last day after administration, plasma from the 2 animals per group was mixed and detected using the Ary028 immune chip kit. Specific detection steps were as follows: • (1) Sample volume determination: 200 µL serum sample per Array unit. (2) Blocking protein chip: Each membrane was blocked with 2 mL of corresponding Array Buffer, incubated on a shaker for 1 hour. (3) Sample processing: Samples were diluted with corresponding Array Buffer to a volume of 1.5 mL per membrane, the corresponding Array unit was added, and incubated overnight with the Array protein membrane at 4°C. (4) Membranes were washed three times with corresponding Wash buffer, then diluted detection antibody was added and incubated at room temperature for 1 h. (5) Membranes were washed three times with corresponding Wash buffer, streptavidin-HRP was added and incubated for 30min at room temperature with shaking. (6) Membranes were washed three times with corresponding Wash buffer, 1 mL of chemiluminescent reagent was added to each well, and developed on a chemiluminescence imager. (7) Fluorescence intensity was used to represent the relative concentration of the corresponding protein.

[3] = system: neuromuscular blockade induced by atracurium; conditions: H. D. de Boer et al., British Journal of Anaesthesia 2006; cited from earlier work
[4] = ICR mice, tail vein once daily for 5 days, pooled plasma of 2 mice, N.D. = below minimum detection limit

In the case of `O=C([O-])CCSC[C@H]1O[C@@H]2O[C@H]3[C@H](O)[C@@H](O)[C@@H](O[C@H]4[C@H](O)[C@@H](O)[C@@H](O[C@H]5[C@H](O)[C@@H](O)[C@@H](O[C@H]6[C@H](O)[C@@H](O)[C@@H](O[C@H]7[C@H](O)[C@@H](O)[C@@H](O[C@H]8[C@H](O)[C@@H](O)[C@@H](O[C@H]9[C@H](O)C(O)[C@@H](O[C@H]1[C@H](O)[C@H]2O)O[C@@H]9CSCCC(=O)[O-])O[C@@H]8CSCCC(=O)[O-])O[C@@H]7CSCCC(=O)[O-])O[C@@H]6CSCCC(=O)[O-])O[C@@H]5CSCCC(=O)[O-])O[C@@H]4CSCCC(=O)[O-])O[C@@H]3CSCCC(=O)[O-].[Na+].[Na+].[Na+].[Na+].[Na+].[Na+].[Na+].[Na+]` (stereo partly drawn) [Compound 7, Sugammadex sodium], the “binding to succinylcholine or benzylisoquinoline-type neuromuscular blocking agents (in words)” value [1] is given as “does not bind”, the “Fluorescence Intensity BAFF/BlyS/ TNFSF13B (B cell activation factor)” value [2, 4] is given as 13375.34 and the “Fluorescence Intensity C-Reactive Protein/CRP (C-reactive protein)” value [2, 4] is given as 8550.52. For the same compound, the “Fluorescence Intensity CCL21/6Ckine (Lymphocyte chemokine CCL21)” value [2, 4] was 27027.2, the “Fluorescence Intensity CCL22/MDC (Macrophage-derived chemokine)” value [2, 4] was 2578.89 and the “Fluorescence Intensity CD160 (Leukocyte differentiation antigen160)” value [2, 4] was 187.67. For the same compound, the “Fluorescence Intensity CXCL9/MIG (IFN-γ-induced monocyte factor)” value [2, 4] was 3617.92, the “Fluorescence Intensity Chemerin (Chemotactic factor)” value [2, 4] was 4629.24 and the “Fluorescence Intensity IL-7 (Interleukin-7)” value [2, 4] was 1922.84. The “Fluorescence Intensity IL-11 (Interleukin-11)” value [2, 4] was 216.49, the “Fluorescence Intensity IL-12p40 (Interleukin IL-12p40)” value [2, 4] was 1049.34 and the “Fluorescence Intensity IL-28 (Interleukin-28)” value [2, 4] was 2440.68. For the same compound, the “Fluorescence Intensity IL-33 (Interleukin-33)” value [2, 4] was 592.77, the “Fluorescence Intensity M-CSF (Macrophage colony-stimulating factor)” value [2, 4] was 5871.05 and the “Fluorescence Intensity Myeloperoxidase (Mastoperoxidase)” value [2, 4] was 4645.21. For the same compound, the “Fluorescence Intensity Pentraxin 3 (Pertussis toxin 3)” value [2, 4] was 4555.53, the “Fluorescence Intensity TIM-1/KIM-1/ HAVCR (Hepatitis A virus receptor-1 (inflammation/ immunity))” value [2, 4] was 1023.1 and the “impact on inducing immune inflammation in mice (in words)” value ([2]; conclusion from Tables 3 and 4) was “second-lowest impact”. For the same compound, the “Fluorescence Intensity M-CSF (Macrophage lysis-stimulating factor)” value ([2]; second M-CSF line of Table 4, ICR mice, tail vein once daily for 5 days, pooled plasma of 2 mice, N.D. = below minimum detection limit) was 5871.05, the “Fluorescence Intensity Pentraxin 3/TSG-14 (Pertussis toxin 3)” value ([2]; second Pentraxin 3 line of Table 4, ICR mice, tail vein once daily for 5 days, pooled plasma of 2 mice, N.D. = below minimum detection limit) was 4555.53 and the “reversing the neuromuscular blockade induced by atracurium (in words)” value [3] was “ineffective”.
